The results in this text go back to ChEMBL document CHEMBL3862033 (J Med Chem, 2016).

Chain of 5-hydroxytryptamine receptor 1B (Homo sapiens) (P28222 whole entry): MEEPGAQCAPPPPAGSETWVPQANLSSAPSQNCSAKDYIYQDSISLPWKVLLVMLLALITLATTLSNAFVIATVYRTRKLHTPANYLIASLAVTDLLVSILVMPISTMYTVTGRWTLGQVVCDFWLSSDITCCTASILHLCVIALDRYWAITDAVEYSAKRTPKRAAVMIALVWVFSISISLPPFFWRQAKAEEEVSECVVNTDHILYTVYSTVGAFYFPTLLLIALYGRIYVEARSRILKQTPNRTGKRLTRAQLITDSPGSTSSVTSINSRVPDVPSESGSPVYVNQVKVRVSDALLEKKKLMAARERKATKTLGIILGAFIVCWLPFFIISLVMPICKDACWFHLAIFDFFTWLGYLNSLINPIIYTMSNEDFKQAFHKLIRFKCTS
Chain of Adenosine receptor A2a (P29274 whole entry): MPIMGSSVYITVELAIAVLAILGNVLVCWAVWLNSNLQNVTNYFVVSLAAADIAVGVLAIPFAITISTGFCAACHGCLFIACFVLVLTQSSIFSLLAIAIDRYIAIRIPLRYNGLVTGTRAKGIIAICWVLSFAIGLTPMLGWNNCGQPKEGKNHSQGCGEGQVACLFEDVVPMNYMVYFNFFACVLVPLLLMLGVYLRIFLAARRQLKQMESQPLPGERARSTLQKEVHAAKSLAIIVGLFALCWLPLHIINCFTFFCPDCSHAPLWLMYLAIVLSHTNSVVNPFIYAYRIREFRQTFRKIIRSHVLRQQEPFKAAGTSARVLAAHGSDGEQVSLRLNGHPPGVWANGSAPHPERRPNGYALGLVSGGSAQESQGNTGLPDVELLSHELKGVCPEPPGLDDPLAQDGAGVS
Chain of 5-hydroxytryptamine receptor 7 (Homo sapiens) (P34969 whole entry): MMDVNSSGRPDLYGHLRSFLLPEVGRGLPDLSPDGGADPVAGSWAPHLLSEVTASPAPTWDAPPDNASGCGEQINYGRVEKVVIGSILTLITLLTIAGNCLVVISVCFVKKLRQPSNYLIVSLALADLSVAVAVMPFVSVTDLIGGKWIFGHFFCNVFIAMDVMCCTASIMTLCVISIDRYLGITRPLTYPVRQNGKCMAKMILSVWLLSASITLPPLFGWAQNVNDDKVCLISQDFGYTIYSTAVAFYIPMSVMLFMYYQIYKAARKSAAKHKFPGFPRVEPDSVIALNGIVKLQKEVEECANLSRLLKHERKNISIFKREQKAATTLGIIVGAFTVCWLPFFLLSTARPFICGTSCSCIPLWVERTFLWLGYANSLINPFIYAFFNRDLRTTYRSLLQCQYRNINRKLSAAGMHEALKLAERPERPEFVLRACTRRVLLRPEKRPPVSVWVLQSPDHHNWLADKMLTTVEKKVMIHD

The first assay concerns the target T1, 5-hydroxytryptamine receptor 1A (Homo sapiens) (UniProt P08908).
T1 sequence (whole entry): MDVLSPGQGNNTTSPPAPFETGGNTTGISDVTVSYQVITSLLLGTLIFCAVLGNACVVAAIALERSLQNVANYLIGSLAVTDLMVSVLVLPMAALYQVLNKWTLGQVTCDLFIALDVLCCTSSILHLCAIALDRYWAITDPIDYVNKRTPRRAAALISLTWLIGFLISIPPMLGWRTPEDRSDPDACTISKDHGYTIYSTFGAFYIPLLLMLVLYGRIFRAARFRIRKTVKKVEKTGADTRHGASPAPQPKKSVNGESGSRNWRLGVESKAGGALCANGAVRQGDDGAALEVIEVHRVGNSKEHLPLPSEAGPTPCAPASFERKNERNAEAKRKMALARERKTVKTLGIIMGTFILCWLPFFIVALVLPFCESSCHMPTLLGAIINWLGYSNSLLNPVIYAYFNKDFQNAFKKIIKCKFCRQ
The assay is described as follows: Displacement of [3H]WAY100635 from human 5-HT1AR expressed in CHO cell membranes at 10 uM incubated for 90 mins under dark condition by microbeta scintillation counting method relative to control.
Details: not given
With `CC[C@H](Nc1nc(Cl)nc2c1ncn2[C@H]1[C@H](O)[C@H](O)[C@]2(CO)C[C@H]12)C1CC1`, the inhibition (usually the percentage by which the read-out fell short of the control) is below 50%.
`OC[C@@]12C[C@@H]1[C@@H](n1cnc3c(N[C@@H](C4CCC4)C4CC4)nc(Cl)nc31)[C@H](O)[C@@H]2O`: the inhibition is below 50%.

Another assay deals with 5-hydroxytryptamine receptor 4 (Homo sapiens) (UniProt Q13639). As to the kind of experiment: Displacement of [3H]GR113808 from human 5-HT4 receptor at 10 uM incubated for 90 mins under dark condition by microbeta scintillation counting method relative to control.
Chain of 5-hydroxytryptamine receptor 4 (Homo sapiens) (Q13639 whole entry): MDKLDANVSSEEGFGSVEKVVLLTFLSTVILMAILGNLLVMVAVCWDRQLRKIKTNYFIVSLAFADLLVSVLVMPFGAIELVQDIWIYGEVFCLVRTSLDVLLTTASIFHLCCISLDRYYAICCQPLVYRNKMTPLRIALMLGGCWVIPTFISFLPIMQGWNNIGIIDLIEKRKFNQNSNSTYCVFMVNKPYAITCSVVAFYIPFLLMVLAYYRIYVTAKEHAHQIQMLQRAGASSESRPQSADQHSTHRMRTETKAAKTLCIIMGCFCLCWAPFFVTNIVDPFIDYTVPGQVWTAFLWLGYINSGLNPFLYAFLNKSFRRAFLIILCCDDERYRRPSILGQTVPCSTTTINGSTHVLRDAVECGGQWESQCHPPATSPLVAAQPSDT
Details: not given
In general terms: Displacement assays read how much labelled ligand stays bound in the presence of the test substance.
`CC[C@H](Nc1nc(Cl)nc2c1ncn2[C@H]1[C@H](O)[C@H](O)[C@]2(CO)C[C@H]12)C1CC1` registered an inhibition below 50%.
Same read-out and setting: in the case of `OC[C@@]12C[C@@H]1[C@@H](n1cnc3c(N[C@@H](C4CCC4)C4CC4)nc(Cl)nc31)[C@H](O)[C@@H]2O` it was below 50%.

In a further assay the target is T2, 5-hydroxytryptamine receptor 2C (Homo sapiens, UniProt P28335).
T2 sequence (P28335 whole entry): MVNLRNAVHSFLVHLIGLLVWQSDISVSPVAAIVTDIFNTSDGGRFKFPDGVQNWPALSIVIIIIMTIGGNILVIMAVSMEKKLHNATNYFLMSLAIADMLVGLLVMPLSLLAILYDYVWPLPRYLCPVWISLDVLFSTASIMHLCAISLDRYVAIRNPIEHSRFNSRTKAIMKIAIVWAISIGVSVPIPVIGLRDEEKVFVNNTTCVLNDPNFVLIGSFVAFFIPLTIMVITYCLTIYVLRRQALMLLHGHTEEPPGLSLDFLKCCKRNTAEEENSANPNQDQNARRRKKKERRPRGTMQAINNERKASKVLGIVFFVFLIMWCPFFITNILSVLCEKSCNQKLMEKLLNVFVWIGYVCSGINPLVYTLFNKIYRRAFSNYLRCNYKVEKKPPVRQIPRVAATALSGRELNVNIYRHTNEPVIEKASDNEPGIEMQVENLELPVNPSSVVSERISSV
As to the kind of experiment: Displacement of [3H]mesulergine from human 5-HT2CR expressed in Flp-In HEK cell membranes incubated for 90 mins under dark condition by microbeta scintillation counting method. Details: species or system HEK293.
Details: not given
Regarding `CC[C@H](Nc1nc(Cl)nc2c1ncn2[C@H]1[C@H](O)[C@H](O)[C@]2(CO)C[C@H]12)C1CC1`, the Ki (as a rule, the equilibrium dissociation constant of an inhibitor or competing ligand from its target) came out at 0.251 µM.
For the molecule `OC[C@@]12C[C@@H]1[C@@H](n1cnc3c(N[C@@H](C4CCC4)C4CC4)nc(Cl)nc31)[C@H](O)[C@@H]2O`, affinity was put at a Ki of 0.27 µM.

For a further assay, the target named is 5-hydroxytryptamine receptor 1E (Homo sapiens) (UniProt P28566). As to the kind of experiment: Displacement of [3H]5-HT from human 5-HT1E receptor expressed in HEK cell membranes at 10 uM incubated for 90 mins under dark condition by microbeta scintillation counting method relative to control. The settings on record: HEK293.
Chain of 5-hydroxytryptamine receptor 1E (Homo sapiens) (P28566 whole entry): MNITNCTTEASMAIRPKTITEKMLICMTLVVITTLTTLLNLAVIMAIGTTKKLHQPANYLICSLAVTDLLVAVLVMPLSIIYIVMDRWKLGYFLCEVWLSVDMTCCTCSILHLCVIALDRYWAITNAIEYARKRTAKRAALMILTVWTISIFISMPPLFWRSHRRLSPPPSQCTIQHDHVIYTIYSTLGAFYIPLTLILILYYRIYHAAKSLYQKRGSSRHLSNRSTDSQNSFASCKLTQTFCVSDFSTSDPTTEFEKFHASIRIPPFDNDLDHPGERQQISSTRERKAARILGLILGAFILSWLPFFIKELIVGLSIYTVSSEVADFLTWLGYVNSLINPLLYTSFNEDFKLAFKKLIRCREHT
`CC[C@H](Nc1nc(Cl)nc2c1ncn2[C@H]1[C@H](O)[C@H](O)[C@]2(CO)C[C@H]12)C1CC1` returned an inhibition below 50%.
Turning to `OC[C@@]12C[C@@H]1[C@@H](n1cnc3c(N[C@@H](C4CCC4)C4CC4)nc(Cl)nc31)[C@H](O)[C@@H]2O`, the inhibition was below 50%.

The target of a further assay is T3, 5-hydroxytryptamine receptor 2A (Homo sapiens, UniProt P28223). The assay is described as follows: Displacement of [3H]ketanserin from human 5-HT2A receptor expressed in HEK-T cell membranes incubated for 90 mins under dark condition by microbeta scintillation counting method.
T3 sequence (P28223 whole entry): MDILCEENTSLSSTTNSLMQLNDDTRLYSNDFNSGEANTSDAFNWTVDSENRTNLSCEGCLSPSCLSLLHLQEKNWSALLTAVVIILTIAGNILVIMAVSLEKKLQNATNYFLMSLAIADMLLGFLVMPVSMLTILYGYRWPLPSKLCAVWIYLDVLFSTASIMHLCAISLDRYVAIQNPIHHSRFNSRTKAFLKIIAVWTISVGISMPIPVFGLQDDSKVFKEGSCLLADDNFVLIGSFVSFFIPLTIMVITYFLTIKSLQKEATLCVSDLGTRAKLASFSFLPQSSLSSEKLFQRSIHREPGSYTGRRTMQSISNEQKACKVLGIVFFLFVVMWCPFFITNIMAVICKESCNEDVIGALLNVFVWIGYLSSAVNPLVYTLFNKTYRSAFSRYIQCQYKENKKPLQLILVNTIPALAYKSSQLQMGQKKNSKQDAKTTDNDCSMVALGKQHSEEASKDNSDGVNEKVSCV
Details: not given
The molecule `CC[C@H](Nc1nc(Cl)nc2c1ncn2[C@H]1[C@H](O)[C@H](O)[C@]2(CO)C[C@H]12)C1CC1` had a Ki above 10 µM.
Still for that read-out and setting: in the case of `OC[C@@]12C[C@@H]1[C@@H](n1cnc3c(N[C@@H](C4CCC4)C4CC4)nc(Cl)nc31)[C@H](O)[C@@H]2O` it was above 10 µM.

The target of another assay is 5-hydroxytryptamine receptor 6 (Homo sapiens) (UniProt P50406). As to the kind of experiment: Displacement of [3H]LSD from human 5-HT6 receptor expressed in HEK cell membranes at 10 uM incubated for 90 mins under dark condition by microbeta scintillation counting method relative to control. As to conditions: HEK293.
Chain of 5-hydroxytryptamine receptor 6 (Homo sapiens) (P50406 whole entry): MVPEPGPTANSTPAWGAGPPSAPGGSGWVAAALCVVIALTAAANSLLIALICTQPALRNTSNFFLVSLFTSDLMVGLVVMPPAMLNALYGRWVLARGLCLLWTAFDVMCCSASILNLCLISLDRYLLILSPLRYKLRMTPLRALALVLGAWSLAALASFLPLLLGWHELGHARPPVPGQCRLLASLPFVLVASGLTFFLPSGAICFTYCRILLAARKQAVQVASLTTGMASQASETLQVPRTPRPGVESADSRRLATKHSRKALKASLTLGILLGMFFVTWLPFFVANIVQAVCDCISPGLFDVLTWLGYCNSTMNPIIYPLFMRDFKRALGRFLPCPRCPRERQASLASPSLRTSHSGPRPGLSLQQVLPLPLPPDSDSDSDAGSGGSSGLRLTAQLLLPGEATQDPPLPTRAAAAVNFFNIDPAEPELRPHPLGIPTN
On to `CC[C@H](Nc1nc(Cl)nc2c1ncn2[C@H]1[C@H](O)[C@H](O)[C@]2(CO)C[C@H]12)C1CC1`, for which the inhibition was below 50%.
Still for that read-out and setting: next, `OC[C@@]12C[C@@H]1[C@@H](n1cnc3c(N[C@@H](C4CCC4)C4CC4)nc(Cl)nc31)[C@H](O)[C@@H]2O`: below 50%.

A further assay concerns the target T4, 5-hydroxytryptamine receptor 3A (Homo sapiens) (UniProt P46098).
T4 sequence (whole entry): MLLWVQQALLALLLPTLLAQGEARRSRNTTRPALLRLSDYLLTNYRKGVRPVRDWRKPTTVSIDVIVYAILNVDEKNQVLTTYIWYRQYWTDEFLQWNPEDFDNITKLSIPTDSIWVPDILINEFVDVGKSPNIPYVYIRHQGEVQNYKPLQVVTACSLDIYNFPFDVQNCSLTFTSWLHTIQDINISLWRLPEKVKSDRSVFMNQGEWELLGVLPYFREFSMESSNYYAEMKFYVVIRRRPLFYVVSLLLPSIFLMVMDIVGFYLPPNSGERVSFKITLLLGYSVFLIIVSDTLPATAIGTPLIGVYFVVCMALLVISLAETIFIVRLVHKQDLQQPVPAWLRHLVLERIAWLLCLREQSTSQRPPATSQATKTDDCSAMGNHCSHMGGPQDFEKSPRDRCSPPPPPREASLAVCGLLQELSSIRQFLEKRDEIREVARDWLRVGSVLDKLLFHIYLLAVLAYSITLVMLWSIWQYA
As to the kind of experiment: Displacement of [3H]GR65630 from human 5-HT3 receptor expressed in HEK-T cell membranes at 10 uM incubated for 90 mins under dark condition by microbeta scintillation counting method relative to control.
Details: not given
In turn, `CC[C@H](Nc1nc(Cl)nc2c1ncn2[C@H]1[C@H](O)[C@H](O)[C@]2(CO)C[C@H]12)C1CC1` gave an inhibition below 50%.
On the same count and under the same terms, in the case of `OC[C@@]12C[C@@H]1[C@@H](n1cnc3c(N[C@@H](C4CCC4)C4CC4)nc(Cl)nc31)[C@H](O)[C@@H]2O` it was below 50%.

The target of a further assay is T5, 5-hydroxytryptamine receptor 2C (Homo sapiens) (UniProt P28335).
T5 sequence (whole entry): T2 sequence (P28335 whole entry)
The assay is described as follows: Displacement of [3H]mesulergine from human 5-HT2CR expressed in Flp-In HEK cell membranes at 10 uM incubated for 90 mins under dark condition by microbeta scintillation counting method relative to control. As to conditions: HEK293.
The molecule `CC[C@H](Nc1nc(Cl)nc2c1ncn2[C@H]1[C@H](O)[C@H](O)[C@]2(CO)C[C@H]12)C1CC1` showed an inhibition above 50%.
With `OC[C@@]12C[C@@H]1[C@@H](n1cnc3c(N[C@@H](C4CCC4)C4CC4)nc(Cl)nc31)[C@H](O)[C@@H]2O`, the inhibition was above 50%.

The next assay concerns the target 5-hydroxytryptamine receptor 1B (Homo sapiens) (UniProt P28222). As to the kind of experiment: Displacement of [3H]5-CT from human 5-HT1BR expressed in HEK cell membranes at 10 uM incubated for 90 mins under dark condition by microbeta scintillation counting method relative to control. As to conditions: HEK293.
`CC[C@H](Nc1nc(Cl)nc2c1ncn2[C@H]1[C@H](O)[C@H](O)[C@]2(CO)C[C@H]12)C1CC1` displayed an inhibition below 50%.
Consider `OC[C@@]12C[C@@H]1[C@@H](n1cnc3c(N[C@@H](C4CCC4)C4CC4)nc(Cl)nc31)[C@H](O)[C@@H]2O`, for which the inhibition was below 50%.

In the next assay the target is 5-hydroxytryptamine receptor 5A (Homo sapiens) (UniProt P47898). As to the kind of experiment: Displacement of [3H]LSD from human 5-HT5A receptor expressed in Flp-In-CHO cell membranes incubated for 90 mins under dark condition by microbeta scintillation counting method relative to control.
Chain of 5-hydroxytryptamine receptor 5A (Homo sapiens) (P47898 whole entry): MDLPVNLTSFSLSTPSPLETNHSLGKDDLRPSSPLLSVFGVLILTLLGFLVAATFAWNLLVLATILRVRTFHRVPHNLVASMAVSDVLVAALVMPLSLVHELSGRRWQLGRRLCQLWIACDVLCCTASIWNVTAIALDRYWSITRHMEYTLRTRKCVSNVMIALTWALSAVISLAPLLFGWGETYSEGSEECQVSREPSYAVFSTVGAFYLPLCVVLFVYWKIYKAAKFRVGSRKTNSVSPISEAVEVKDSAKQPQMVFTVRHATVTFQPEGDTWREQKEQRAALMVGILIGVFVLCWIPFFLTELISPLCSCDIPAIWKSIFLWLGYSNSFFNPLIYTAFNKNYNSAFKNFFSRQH
Details: not given
Set-up: concentration or dose not given beside the values.
`CC[C@H](Nc1nc(Cl)nc2c1ncn2[C@H]1[C@H](O)[C@H](O)[C@]2(CO)C[C@H]12)C1CC1` yielded an inhibition below 50%.
Take `OC[C@@]12C[C@@H]1[C@@H](n1cnc3c(N[C@@H](C4CCC4)C4CC4)nc(Cl)nc31)[C@H](O)[C@@H]2O`: the inhibition was below 50%.

Another assay concerns the target Adenosine receptor A2a (Homo sapiens, UniProt P29274). As to the kind of experiment: Displacement of [3 H]2-[p-(2-carboxyethyl)phenyl-ethylamino]-5'-N-ethylcarboxamidoadenosine from recombinant human adenosine receptor A2A expressed in HEK293 cell membranes after 60 mins by liquid scintillation counting method.
Details: not given
On to `CC[C@H](Nc1nc(Cl)nc2c1ncn2[C@H]1[C@H](O)[C@H](O)[C@]2(CO)C[C@H]12)C1CC1`, for which the inhibition constant Ki stood at 2.95 µM.
With `OC[C@@]12C[C@@H]1[C@@H](n1cnc3c(N[C@@H](C4CCC4)C4CC4)nc(Cl)nc31)[C@H](O)[C@@H]2O`, the Ki was 3.94 µM.

The target of a further assay is 5-hydroxytryptamine receptor 1D (Homo sapiens) (UniProt P28221). As to the kind of experiment: Displacement of [3H]5-CT from human 5-HT1D receptor expressed in HEK-T cell membranes at 10 uM incubated for 90 mins under dark condition by microbeta scintillation counting method relative to control.
Chain of 5-hydroxytryptamine receptor 1D (Homo sapiens) (P28221 whole entry): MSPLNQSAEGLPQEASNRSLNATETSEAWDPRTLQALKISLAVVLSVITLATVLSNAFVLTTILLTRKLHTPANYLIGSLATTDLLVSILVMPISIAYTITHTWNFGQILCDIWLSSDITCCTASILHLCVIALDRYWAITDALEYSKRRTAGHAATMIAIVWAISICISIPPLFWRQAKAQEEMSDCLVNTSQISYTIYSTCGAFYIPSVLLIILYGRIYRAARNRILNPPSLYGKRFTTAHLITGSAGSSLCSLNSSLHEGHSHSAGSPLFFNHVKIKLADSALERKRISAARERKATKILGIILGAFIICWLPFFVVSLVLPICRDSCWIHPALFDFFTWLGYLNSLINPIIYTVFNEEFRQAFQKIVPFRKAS
Details: not given
`CC[C@H](Nc1nc(Cl)nc2c1ncn2[C@H]1[C@H](O)[C@H](O)[C@]2(CO)C[C@H]12)C1CC1`: the inhibition is below 50%.
The molecule `OC[C@@]12C[C@@H]1[C@@H](n1cnc3c(N[C@@H](C4CCC4)C4CC4)nc(Cl)nc31)[C@H](O)[C@@H]2O` showed an inhibition below 50%.

A further assay deals with T6, Adenosine receptor A1 (Homo sapiens, UniProt P30542).
T6 sequence (P30542 whole entry): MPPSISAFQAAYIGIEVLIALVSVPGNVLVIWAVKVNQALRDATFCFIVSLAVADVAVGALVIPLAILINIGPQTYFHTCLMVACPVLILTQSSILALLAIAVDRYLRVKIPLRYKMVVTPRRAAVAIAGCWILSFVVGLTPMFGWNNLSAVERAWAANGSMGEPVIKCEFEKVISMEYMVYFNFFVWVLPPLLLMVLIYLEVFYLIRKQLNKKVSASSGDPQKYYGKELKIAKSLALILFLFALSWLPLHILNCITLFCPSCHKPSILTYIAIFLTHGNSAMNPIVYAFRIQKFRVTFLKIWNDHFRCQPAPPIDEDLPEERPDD
As to the kind of experiment: Displacement of [3H]N6-phenylisopropyladenosine from recombinant human A1AR expressed in CHO cell membranes after 60 mins by liquid scintillation counting method.
Details: not given
As for `CC[C@H](Nc1nc(Cl)nc2c1ncn2[C@H]1[C@H](O)[C@H](O)[C@]2(CO)C[C@H]12)C1CC1`, the Ki amounted to 0.117 µM.
Same read-out and setting: next, `OC[C@@]12C[C@@H]1[C@@H](n1cnc3c(N[C@@H](C4CCC4)C4CC4)nc(Cl)nc31)[C@H](O)[C@@H]2O`: 0.144 µM.

The next assay addresses 5-hydroxytryptamine receptor 7 (Homo sapiens) (UniProt P34969). The assay is described as follows: Displacement of [3H]LSD from human 5-HT7A receptor expressed in HEK cell membranes at 10 uM incubated for 90 mins under dark condition by microbeta scintillation counting method relative to control. The settings on record: HEK293.
In turn, `CC[C@H](Nc1nc(Cl)nc2c1ncn2[C@H]1[C@H](O)[C@H](O)[C@]2(CO)C[C@H]12)C1CC1` displayed an inhibition below 50%.
`OC[C@@]12C[C@@H]1[C@@H](n1cnc3c(N[C@@H](C4CCC4)C4CC4)nc(Cl)nc31)[C@H](O)[C@@H]2O`: the inhibition is below 50%.

For the next assay, the target named is T3, 5-hydroxytryptamine receptor 2A. As to the kind of experiment: Displacement of [3H]ketanserin from human 5-HT2A receptor expressed in HEK-T cell membranes at 10 uM incubated for 90 mins under dark condition by microbeta scintillation counting method relative to control.
Details: not given
As to `CC[C@H](Nc1nc(Cl)nc2c1ncn2[C@H]1[C@H](O)[C@H](O)[C@]2(CO)C[C@H]12)C1CC1`, the inhibition was below 10%.
In the case of `OC[C@@]12C[C@@H]1[C@@H](n1cnc3c(N[C@@H](C4CCC4)C4CC4)nc(Cl)nc31)[C@H](O)[C@@H]2O`, the inhibition was below 10%.
